Structures can show the parent of a compound that is named as a salt.
Assay: Physical stability of polymorphs on storage, tested by PXRD
Type: physicochemical
Conditions: for physical stability (PXRD analysis): up to three months
Protocol: The powder X-ray diffraction patterns of said polymorphs of the invention were measured on a PANalytical X′Pert PRO powder diffractometer equipped with a goniometer of θ/θ configuration and X'Celerator detector. The Cu-anode X-ray tube was operated at 40 kV and 30 mA. The experiments were conducted over the 2θ range of 2.0°-50.0°, 0.0330 step size and 50 seconds step time.
In yet another embodiment, the physical stability of crystalline mitapivat hemi sulfate Form VII and crystalline mitapivat hemi sulfate Form XI were determined by storing the samples at 40° C./75% relative humidity (RH) and at 25° C./60% RH conditions for three months as shown in Table 1.

PXRD (physical stability) (stored at 40° C./75% RH, 2 months) | physical stability (PXRD analysis) (25° C./60% relative humidity (RH)) | physical stability (PXRD analysis) (40° C./75% relative humidity (RH)) | PXRD (physical stability) (stored at 25° C./60% RH, 1 month) | PXRD (physical stability) (stored at 25° C./60% RH, 2 months) | PXRD (physical stability) (stored at 25° C./60% RH, 3 months) | PXRD (physical stability) (stored at 40° C./75% RH, 1 month) | PXRD (physical stability) (stored at 40° C./75% RH, 3 months) | Compound
Stable | – | – | – | – | – | – | – | O=C(c1ccc(NS(=O)(=O)c2cccc3cccnc23)cc1)N1CCN(CC2CC2)CC1 [Mitapivat hemi sulfate Form XI, 8-quinolinesulfonamide, N-[4-[[4(cyclopropylmethyl)-1-piperazinyl]carbonyl]phenyl]-, sulfate]
– | physically stable | physically stable | Stable | Stable | Stable | Stable | Stable | O=C(c1ccc(NS(=O)(=O)c2cccc3cccnc23)cc1)N1CCN(CC2CC2)CC1 [Mitapivat hemi sulfate Form VII, 8-quinolinesulfonamide, N-[4-[[4(cyclopropylmethyl)-1-piperazinyl]carbonyl]phenyl]-, sulfate]

— patent publication US20260146025A1, “CRYSTALLINE POLYMORPHS OF MITAPIVAT AND MITAPIVAT HEMISULFATE” (TIANISH LABORATORIES PRIVATE LIMITED, priority 2022, published 2026)
